From US11473052B2, “Bacillus subtilis subspecies” (Novozymes A/S, priority 2015, dated 2022) come the findings set out here.

One assay has as its system B. subtilis DSM 29870. Kind of assay: MIC of antibiotics by broth micro dilution (CLSI M07-A9). The note with it: Bacillus subtilis.
The test system of another assay is S. aureus ATCC 29213. Kind of assay: MIC of antibiotics by broth micro dilution (CLSI M07-A9), control strain. The note with it: Staphylococcus aureus.

Like-named read-outs stand apart in the source and are kept apart here.

For `CN[C@H](CC(C)C)C(=O)N[C@H]1C(=O)N[C@@H](CC(N)=O)C(=O)N[C@H]2C(=O)N[C@H]3C(=O)N[C@H](C(=O)N[C@H](C(=O)O)c4cc(O)cc(O)c4-c4cc3ccc4O)[C@H](O)c3ccc(c(Cl)c3)Oc3cc2cc(c3O[C@@H]2O[C@H](CO)[C@@H](O)[C@H](O)[C@H]2O[C@H]2C[C@](C)(N)[C@H](O)[C@H](C)O2)Oc2ccc(cc2Cl)[C@H]1O` [Vancomycin], the MIC – broadly, the smallest concentration in the dilution series that meets the test's criterion for growth inhibition – was determined as 0.25 µg/mL in the assay with B. subtilis DSM 29870 (DSM29870, read-out: MIC 1); 0.25 µg/mL in the assay with B. subtilis DSM 29870 (DSM29870, read-out: MIC 2); 0.25 µg/mL in the assay with B. subtilis DSM 29870 (DSM29870, read-out: MIC 3); 0.5 µg/mL in the assay on S. aureus ATCC 29213 (ATCC29213, read-out: MIC 1); 1 µg/mL in the assay on S. aureus ATCC 29213 (ATCC29213, read-out: MIC 2); 1 µg/mL in the assay with S. aureus ATCC 29213 (ATCC29213, read-out: MIC 3).
